Measured values from ChEMBL document CHEMBL1201862, “PubChem BioAssay data set” (2004).
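Values below derive from 48-hour exposures of cells grown in 96-well plates, with endpoints linearly interpolated between the two concentrations bracketing the appropriate inhibition level. GI50 = concentration required for 50% inhibition of growth.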 Activity calls are given as the source filed them. Rule as the data show it: active = GI50 up to about 1.1 µM and inactive = higher.

Experiments:
Assay in all cases: NCI tumour cell line growth inhibition, 48 h
IGROV-1 = test system: IGROV-1
MOLT-4 = test system: MOLT-4
SNB-19 = test system: SNB-19
SK-OV-3 = test system: SK-OV-3
LOX IMVI = test system: LOX IMVI
CAKI-1 = test system: CAKI-1
MDA-MB-231 = test system: MDA-MB-231
SN12C = test system: SN12C
U-251 = test system: U-251
BT-549 = test system: BT-549
M14 = test system: M14
MDA-MB-435 = test system: MDA-MB-435
RXF 393 = test system: RXF 393
SK-MEL-28 = test system: SK-MEL-28
HCT-116 = test system: HCT-116
SW-620 = test system: SW-620
DU-145 = test system: DU-145
786-0 = test system: 786-0
UACC-62 = test system: UACC-62
HT-29 = test system: HT-29

Compound | GI50 (IGROV-1) | GI50 (MOLT-4) | GI50 (SNB-19) | GI50 (SK-OV-3) | GI50 (LOX IMVI) | GI50 (CAKI-1) | GI50 (MDA-MB-231) | GI50 (SN12C) | GI50 (U-251) | GI50 (BT-549) | GI50 (M14) | GI50 (MDA-MB-435) | GI50 (RXF 393) | GI50 (SK-MEL-28) | GI50 (HCT-116) | GI50 (SW-620) | GI50 (DU-145) | GI50 (786-0) | GI50 (UACC-62) | GI50 (HT-29)
O=C1/C(=C/Cc2ccco2)N=C(c2ccccc2)N1c1nc2c(Cl)cc(Cl)cc2s1 | 29.9 µM (inactive) | 1.02 µM (active) | 34.3 µM (inactive) | 35.2 µM (inactive) | 25.4 µM (inactive) | 32.6 µM (inactive) | 27.2 µM (inactive) | 27 µM (inactive) | 27 µM (inactive) | 26 µM (inactive) | 39.3 µM (inactive) | 20.5 µM (inactive) | 13.4 µM (inactive) | 57.1 µM (inactive) | 27.7 µM (inactive) | 39 µM (inactive) | 27.4 µM (inactive) | 44.8 µM (inactive) | 27.5 µM (inactive) | 30.8 µM (inactive)
Cc1noc(C)c1-n1nc2ccc3nonc3c2n1 | 81.7 µM (inactive) | > 100 µM (inactive) | 32.3 µM (inactive) | 34.8 µM (inactive) | > 100 µM (inactive) | > 83.8 µM (inactive) | > 65.9 µM (inactive) | > 100 µM (inactive) | 30.1 µM (inactive) | 79.3 µM (inactive) | > 100 µM (inactive) | > 100 µM (inactive) | 23 µM (inactive) | > 100 µM (inactive) | 56.6 µM (inactive) | > 100 µM (inactive) | > 100 µM (inactive) | 37.5 µM (inactive) | > 59.8 µM (inactive) | > 100 µM (inactive)
CN(C)CCCNC(CC#N)CCC#N (stereo not given) | > 10 µM (inactive) | > 10 µM (inactive) | > 10 µM (inactive) | > 10 µM (inactive) | > 10 µM (inactive) | > 10 µM (inactive) | > 10 µM (inactive) | > 10 µM (inactive) | > 10 µM (inactive) | > 10 µM (inactive) | > 10 µM (inactive) | > 10 µM (inactive) | > 10 µM (inactive) | > 10 µM (inactive) | > 10 µM (inactive) | > 10 µM (inactive) | > 10 µM (inactive) | > 10 µM (inactive) | > 10 µM (inactive) | > 10 µM (inactive)
O=C(n1[nH]c(=O)n(-c2ccc([N+](=O)[O-])cc2)c1=O)C(Cl)(Cl)Cl | > 75 µM (inactive) | > 75 µM (inactive) | > 75 µM (inactive) | > 75 µM (inactive) | > 75 µM (inactive) | > 75 µM (inactive) | > 75 µM (inactive) | > 75 µM (inactive) | > 75 µM (inactive) | > 75 µM (inactive) | > 75 µM (inactive) | > 75 µM (inactive) | > 75 µM (inactive) | > 75 µM (inactive) | > 75 µM (inactive) | > 75 µM (inactive) | > 75 µM (inactive) | > 75 µM (inactive) | > 75 µM (inactive) | > 75 µM (inactive)
C[C@]1(S(=O)(=O)c2ccccc2)C[C@H]2N(Cc3ccccc3)[C@@H]1CCC21OCCO1 | > 100 µM (inactive) | 30.8 µM (inactive) | > 100 µM (inactive) | > 100 µM (inactive) | > 100 µM (inactive) | > 100 µM (inactive) | > 100 µM (inactive) | > 100 µM (inactive) | > 100 µM (inactive) | > 100 µM (inactive) | > 100 µM (inactive) | > 100 µM (inactive) | > 100 µM (inactive) | > 100 µM (inactive) | > 100 µM (inactive) | 94.6 µM (inactive) | > 100 µM (inactive) | > 100 µM (inactive) | > 100 µM (inactive) | 58.6 µM (inactive)
N#Cc1nc(-c2ccccn2)c(-c2ccccn2)nc1C#N | 1.43 µM (inactive) | 4.19 µM (inactive) | 4.1 µM (inactive) | 1.6 µM (inactive) | 1.03 µM (active) | 2.04 µM (inactive) | 10.7 µM (inactive) | 4.82 µM (inactive) | 2.32 µM (inactive) | 2.36 µM (inactive) | 1.59 µM (inactive) | 2.7 µM (inactive) | 3.58 µM (inactive) | 3.96 µM (inactive) | 0.624 µM (active) | 3.08 µM (inactive) | 2.32 µM (inactive) | 0.515 µM (active) | 0.47 µM (active) | 2.82 µM (inactive)
C=CC(C)CCC(C/C=C(\C)CCC=C(C)C)C(=C)CCCC(C)C (stereo not given) | > 100 µM (inactive) | > 100 µM (inactive) | > 100 µM (inactive) | > 100 µM (inactive) | > 100 µM (inactive) | > 100 µM (inactive) | > 100 µM (inactive) | > 100 µM (inactive) | > 100 µM (inactive) | > 100 µM (inactive) | > 100 µM (inactive) | > 100 µM (inactive) | > 100 µM (inactive) | > 100 µM (inactive) | > 100 µM (inactive) | > 100 µM (inactive) | > 100 µM (inactive) | > 100 µM (inactive) | > 100 µM (inactive) | > 100 µM (inactive)
Cn1c2ccccc2c(=NNc2ccccc2C(=O)O)c2ccccc21 | 24.2 µM (inactive) | 10.9 µM (inactive) | 24.4 µM (inactive) | 20.3 µM (inactive) | 11.8 µM (inactive) | 23.3 µM (inactive) | 16.9 µM (inactive) | 23.7 µM (inactive) | 7.03 µM (inactive) | 19.1 µM (inactive) | 22.6 µM (inactive) | 20 µM (inactive) | 12.7 µM (inactive) | 20.2 µM (inactive) | 13.5 µM (inactive) | 24.4 µM (inactive) | 27.5 µM (inactive) | 27.5 µM (inactive) | 19.5 µM (inactive) | 17.7 µM (inactive)
C[C@@]1(CCCCCCCCCCc2ccccc2)C[C@@]2(C)OC(=O)C[C@H]2OO1 | 1.75 µM (inactive) | 1.69 µM (inactive) | 2.26 µM (inactive) | 2.48 µM (inactive) | 2.05 µM (inactive) | 30.3 µM (inactive) | 1.67 µM (inactive) | 1.81 µM (inactive) | 1.55 µM (inactive) | 0.479 µM (active) | 1.51 µM (inactive) | 1.81 µM (inactive) | 1.93 µM (inactive) | 2.07 µM (inactive) | 1.45 µM (inactive) | 1.68 µM (inactive) | 2.77 µM (inactive) | 1.51 µM (inactive) | 1.8 µM (inactive) | 1.46 µM (inactive)
CN1C(=O)C(CC(=O)O)NC1=S (stereo not given) | 99.5 µM (inactive) | > 100 µM (inactive) | > 100 µM (inactive) | > 100 µM (inactive) | > 100 µM (inactive) | > 100 µM (inactive) | > 100 µM (inactive) | > 100 µM (inactive) | > 100 µM (inactive) | > 100 µM (inactive) | > 100 µM (inactive) | > 100 µM (inactive) | > 100 µM (inactive) | > 100 µM (inactive) | 95.5 µM (inactive) | > 100 µM (inactive) | > 100 µM (inactive) | > 100 µM (inactive) | > 100 µM (inactive) | > 100 µM (inactive)
COc1cc(Br)cc2cc(-c3cn4ccsc4n3)c(=O)oc12 | 19.9 µM (inactive) | 32 µM (inactive) | 30.4 µM (inactive) | 33.7 µM (inactive) | 49.4 µM (inactive) | 35 µM (inactive) | 20.6 µM (inactive) | 28.1 µM (inactive) | 30 µM (inactive) | 20.3 µM (inactive) | 27.9 µM (inactive) | 21.6 µM (inactive) | 24.8 µM (inactive) | 46.2 µM (inactive) | 25.6 µM (inactive) | 36 µM (inactive) | 30.5 µM (inactive) | 42.8 µM (inactive) | 22.2 µM (inactive) | 40.2 µM (inactive)
COc1ccc(C[C@H]2NC[C@H](O)[C@H]2OC(C)=O)cc1 [ANISOMYCIN] | 0.0234 µM (active) | < 0.013 µM (active) | < 0.0177 µM (active) | 0.0398 µM (active) | 0.0131 µM (active) | 0.0106 µM (active) | 0.0159 µM (active) | 0.0166 µM (active) | 0.0309 µM (active) | 0.0411 µM (active) | < 0.0136 µM (active) | 0.0259 µM (active) | 0.0483 µM (active) | 0.0239 µM (active) | < 0.015 µM (active) | 0.0164 µM (active) | 0.0223 µM (active) | 0.018 µM (active) | 0.0362 µM (active) | < 0.0149 µM (active)
CC1(C)CN=C(Nc2ccc(Cl)cc2)S1 | > 100 µM (inactive) | 58.5 µM (inactive) | > 100 µM (inactive) | > 100 µM (inactive) | 78.3 µM (inactive) | > 100 µM (inactive) | > 100 µM (inactive) | > 100 µM (inactive) | > 100 µM (inactive) | > 100 µM (inactive) | > 100 µM (inactive) | > 100 µM (inactive) | > 100 µM (inactive) | > 100 µM (inactive) | 69.5 µM (inactive) | > 100 µM (inactive) | > 100 µM (inactive) | > 100 µM (inactive) | 78.7 µM (inactive) | 43.1 µM (inactive)
Nc1ccc(OCCCc2c(-c3ccccc3)[nH]c(N)nc2=O)cc1 | 31.3 µM (inactive) | 34.5 µM (inactive) | 67.6 µM (inactive) | 21.4 µM (inactive) | 31 µM (inactive) | 91.6 µM (inactive) | 29.9 µM (inactive) | 50.7 µM (inactive) | 69.5 µM (inactive) | 22.5 µM (inactive) | 32.5 µM (inactive) | 49.7 µM (inactive) | 63.8 µM (inactive) | 27.5 µM (inactive) | 29 µM (inactive) | > 100 µM (inactive) | 48.2 µM (inactive) | 45.2 µM (inactive) | 16.1 µM (inactive) | < 0.01 µM (active)
